This data set relates to STIL CCD peptide. Nature of the data set: AUC sedimentation equilibrium (SE), oligomeric state. It counts as physicochemical. Particulars: starting concentration 500 µM, triplicate, absorbance 280 nm, 95% confidence limits. How it is done:
To quantify the dissociation constants of the possible monomer-dimer and dimer-tetramer transitions, we used fluorescence-based binding measurements. Using micro-scale thermophoresis, fluorescence measurements were taken at increasing concentrations of WT CCD peptide in a fixed background of 5 µM fluorophore-labelled peptide. […] Fitting the fluorescence data to the Hill equation provided a dissociation constant of 8 ± 2 µM and a cooperativity of 1.2 ± 0.3 (Figure 2B, Table S4). We interpret this as being for the monomer-dimer transition, and that the fluorescence measurements are insensitive to the higher-order oligomerization. […] To probe the possible dimer-tetramer transition, we turned to AUC-SE measurements with starting concentrations of 5, 10, and 20 µM of STIL WT CCD peptide (Figures S18 and S19). The equilibrated data were fitted first to a model for a single ideal species, which provided a species 2.9 × monomer mass (Table 1). […] It should be noted that the dimerization constant of the WT peptide was measured in the presence of 5% DMSO and using a fluorophore-labeled peptide, while the tetramerization constant was measured without DMSO and unlabeled peptides. The addition of the label and the presence of the DMSO, which was unavoidable for making the labeled peptide soluble, may have affected the measured dimerization constant. Thus, we avoid directly comparing the values obtained by the two methods.
Analytical ultracentrifugation (AUC) experiments were carried out using a Beckman Optima XL-A or XL-I analytical ultracentrifuge. Measurements were performed at 20 °C unless otherwise stated, using an An-50 or An-60 rotor, in Sodium Phosphate Buffer pH 6.8 (25 mM Na2PO4 with addition of 137 mM NaCl, pH measured using Jenway (TM) 3510 benchtop and adjusted using 1M HCl and 1M NaOH solutions). The partial specific volume ( υ¯ ) for each peptide were calculated in Sedfit using values from Cohn and Edsall. The buffer densities and viscosities were calculated using UltraScan III [54].
AUC sedimentation equilibrium (SE) experiments were run at multiple concentrations in a 6-Channel Epon charcoal-filled centerpiece. The samples were centrifuged at a range of speeds between 22–48 krpm. Absorbance scans across the radial range were recorded twice at each speed to ensure equilibration. Data were fitted to single, ideal species models or monomer-dimer equilibrium using Sedphat. In total, 95% confidence limits were obtained via Monte-Carlo analysis of the obtained fits. The quality of the fit was evaluated using the χ^2 parameter to observe which model best fit the data. Both fits of the data, where performed in Figures S18–S23 with their corresponding fit information.

Take “L SPDAYRF LTEQDRQ LRLEQAQ IQRLLEA QSL-NH2 [STIL CCD718–749 L736E, STIL CCD peptide with destabilising L736E mutation; PDB 8oyk]”: the “mass, single species model, SE” value is 3038 ± 292 Da. In addition, the “AUC oligomeric state, SE” value (single species fit, 20 °C, pH 6.8) is recorded as 0.79 ± 0.08 (500 µM) × monomer mass.

For the origin of these results see PMC10572602, “Molecular Mechanism of STIL Coiled-Coil Domain Oligomerization” (International Journal of Molecular Sciences, 2023).
